Literature values, collected in patent publication US12409106B2, “Medical material” (Senju USA, Inc., priority 2022, dated 2025).

Details: Soong T. Chiang et al., Pharmacotherapy 1996

Structure (SMILES): Nc1c(CC(=O)O)cccc1C(=O)c1ccc(Br)cc1 [bromfenac]
- topical 50% effective concentration EC50 on pain after oral surgery: 0.36 µg/mL
